In one data set the test system is Slug. The experiment in a line: Western blot of Slug in GBM cells. It is filed as cell-based, human. The following applies: MG132 10 μM 30 mins pretreatment, then GMI 0.6 μM 3 h. On the procedure: FIGS. 10A-10D show GMI induces Slug degradation in GBM cells. […] The mRNA level of Slug was measured using qPCR.
Cell extracts (30 μg) were then subjected to one-dimensional SDS-PAGE (8-12% separating gel) electrophoresis and were transferred to a PVDF membrane (0.22 μm, Millipore) by using a transfer apparatus (Bio-Rad, Richmond, CA). Membranes were blocked with 5% BSA in TBST buffer containing 0.05% Tween20. The expressions of proteins were identified by indicated antibodies. The expression of tubulin as an internal control. The indicated bands on the PVDF membrane were quantified using densitometry analysis by ImageJ software (National Institute of Mental Health, Bethesda, MD) and compared to results of the control group.
(In western blotting, separated proteins are transferred to a membrane and probed.)

Data set [1] in a line: Rat weight and serum AST, ALT, BUN, creatinine in C6-bearing rats. Format: in vivo. The following applies: rat sera, TMZ 30 mg/kg ip. How it is done: FIGS. 7A-7F show GMI combined with TMZ suppressed tumorigenesis in C6-bearing rats. FIG. 7A indicates Schematic design of the in vivo post combined therapy of GMI and TMZ in C6-bearing rats. The tumor volume in rat received GMI (0.6 mg/kg) and […]. […] FIG. 7C indicates the tumor volume was measured; each bar represents the mean+SD. […] FIGS. 7E and 7F show the AST and ALT (hepatic function: shown in FIG. 7E) as well as BUN and creatinine (renal function; shown in FIG. 7F) of rat sera were analyzed.
Five days after tumor implantation surgery, rats were randomly assigned into four group (6 animals/group) to be treated with different drugs every other day for 4 times, i.e. on day 5, 7, 9, 11. • Group 1 (control): intravenous administration of saline. • Group 2 (GMI): intravenous (iv) administration of GMI (0.6 mg/Kg) • Group 3 (TMZ): intraperitoneal (ip) administration of TMZ (30 mg/Kg) • Group 4 (GMI+TMZ): combination of GMI (iv, 0.6 mg/Kg) and TMZ (ip, 30 mg/Kg)
MRI imaging acquisition was performed on day 13 and a half of the animals in each group were sacrificed on day 15 for immunohistochemistry study. After tumor volume was measured, specimens from the animals in the histology group were subjected to other histological evaluations described as follows.

Each structure is given as a SMILES string. Where a SMILES comes first, the peptide text is derived from it. The star is where a group is joined. Cbz = O=C(OCc1ccccc1)*

Take `CC(C)C[C@@H](C=O)NC(=O)[C@H](CC(C)C)NC(=O)[C@H](CC(C)C)NC(=O)OCc1ccccc1` [MG132] (Cbz-Leu-Leu-Leu-aldehyde): the “GMI-induced Slug degradation” value with Slug is reported as “counteracted GMI-induced Slug degradation”.

Regarding `Cn1nnc2c(C(N)=O)ncn2c1=O` [TMZ, Temozolomide], in data set [1] (GMI 0.6 mg/kg iv), the AST/ALT result is on record as “increased AST/ALT expression”. In data set [1], the BUN result is recorded as “slightly increased BUN expression”.

The record behind these values is US20240216465A1, “METHOD FOR TREATING REFRACTORY BRAIN TUMOR” (National Yang Ming Chiao Tung University, priority 2023, published 2024).
